Here are results for ten molecules from patent publication US7608585B2, “Compositions for inhibition of necrosis induced by a neurotrophin” (Neurotech Pharmaceuticals Co., Ltd., priority 2004, dated 2009).

Read-outs that look alike come from different tables or passages of the source.

Data set [1] deals with BDNF-induced neuronal death in cortical cell cultures. Nature of the data set: Protection against BDNF-induced neuronal death, LDH efflux. Type of data set: cell-based, Rat. The following applies: for Swelling of neuronal cell body and neuronal death: 36 hr after exposure to BDNF, 3-10 nM DPI, 10-30 μM AEBSF; for BDNF neurotoxicity / BDNF-induced neuronal cell necrosis (LDH efflux): 100 ng/ml BDNF, 36 hr, 100 μg/ml anti-BDNF antibody, 100 μM trolox, 1 μg/ml cycloheximide. The method, then:
Cortical cell cultures (DIV 12-15) were exposed to 100 ng/ml BDNF, alone or in the presence NADPH oxidase inhibitors, 3-10 nM DPI, 10-30 μM 4-(2-amonoethyl)-benzensulfonyl fluoride (AEBSF), or 1 μM 2-Hydroxy-TTBA ((2-Hydroxy-5-(2,3,5,6-tetrafluoro-4-trifluoromethyl-benzylamino)-benzoic acid). Neuronal death was analyzed 36 hr later by measurement of LDH efflux into the bathing medium.

For data set [2], the system named is free radical neurotoxicity. The following applies: as anti-oxidants; cited from earlier work.
Data set [3] relates to Neuron-rich cortical cell cultures. Nature of the data set: Serum deprivation-induced neuronal apoptosis, counting viable neurons. Type of data set: cell-based, Rat. The conditions noted are these: for Anti-apoptotic action of BDNF on inclusion of the substance: 100 ng/ml BDNF plus 3 nM DPI or 100 μM trolox; for Serum deprivation-induced neuronal apoptosis: alone, without BDNF; for Serum deprivation-induced neuronal apoptosis / Delayed neuronal death evolving in the presence of BDNF: 3 nM DPI, 100 μM trolox; for Delayed neuronal death evolving in the presence of BDNF: concurrent addition, 48 hr. As for the experimental part:
(§1) For neuron-glia mixed cultures, 10 μM cytosine arabinoside (Ara C) was included to stop the overgrowth of non-neuronal cells to cultures at DIV 5-7 when glial cells were confluent underneath neurons. After 2 days, cultures were then fed with plating medium lacking fetal serum twice a week. Cultures were maintained at 37° C. in a humidified 5% CO2 incubator. For neuron-rich cultures (>95%), 2.5 μM Ara C was included to cultures at 2-3 days in vitro (DIV 2-3) as previously described (Gwag et al., 1997).
(§2) Mixed cortical cell cultures (DIV 12-14) were rinsed in serum free MS (MEM supplemented with 26.5 mM sodium bicarbonate and 21 mM glucose) and then exposed to various concentrations of NGF, BDNF or NT-3 in serum free MS. Neuronal cell death was analyzed by measuring the level of lactate dehydrogenase (LDH) released into the bathing medium. The percent neuronal death was normalized to the mean LDH value released after a sham control (defined as 0%) or continuous exposure to 500 μM NMDA for 24 hr (defined as 100%) The latter produces complete neuronal death within 24 hr. For experiments for serum deprivation, neuron-rich cortical cell cultures (DIV 7) were placed into serum free MS containing 1 μM MK-801 as described (Gwag et al., 1995). Neuronal death was analyzed 24 and 48 hr later by counting viable neurons excluding Trypan Blue satained.
Neuron-rich cortical cell cultures (DIV 7) were deprived of serum, alone (serum deprivation) or in the presence of 100 ng/ml BDNF, 100 ng/ml BDNF plus 3 nM DPI, 3 nM DPI, 100 ng/ml BDNF plus 100 μM trolox, or 100 μM trolox. Neuronal death was assessed 24 hr and 48 hr later by counting viable neurons.

The subject of the next data set is ROS in cortical neurons. Nature of the data set: ROS imaging by oxidized DCDHF-DA (DCF) and hydroethidine fluorescence. Type of data set: cell-based, Rat. The following applies: for BDNF-induced production of [ROS]i: concurrent addition with 100 ng/ml BDNF, 32 hr. The method, then: Cortical cell cultures (DIV 12-15) grown on glass bottom dishes were loaded with 10 μM dichlorodihydro fluorescein diacetate (DCDHF-DA) or 5 μM hydroethidium (Molecular Probes, Eugene, Oreg.) plus 2% Pluronic F-127 in HEPES-buffered control salt solution (HCSS) buffer containing (in mM): 120 NaCl, 5 KCl, 1.6 MgCl2, 2.3 CaCl2, 15 glucose, 20 HEPES, and 10 NaOH. Cultures were incubated for 20 min at 37° C., and washed three times with HCSS buffer. […] The fluorescence images were analyzed using a QuantiCell 700 system (Applied imaging, UK).
Superoxide production through activation of NADPH oxidase was analyzed by measuring the oxidation of HEt and DCDHF to ethidium and DCF, respectively, in cortical neurons after exposure to a sham operation, 100 ng/ml BDNF, or 100 ng/ml BDNF plus 3 nM DPI for 32 hr (FIG. 15).

In data set [4] the test system is Mixed cortical cell cultures. The class given is cell-based, Rat. The method, then: Rat cortical cell cultures were prepared from the 17-day-old fetal brain and the neocortices were mechanically triturated as previously described (Noh and Gwag, 1997). Dissociated cells were plated on 6-well plates and 24-well plates (approximately 3 cortices per plate), or on glass bottom 35 mm dishes for ROS imaging. Plating media consist of Eagle's minimal essential media (MEM, Earle's salts, supplied glutamine-free) supplemented with 5% horse serum, 5% fetal bovine serum, 21 mM glucose, 26.5 mM bicarbonate and 2 mM L-glutamine.
as §1
To examine if neurotrophins would induce neuronal necrosis, BDNF-induced neuronal death was analyzed by measuring the level of lactate dehydrogenase (LDH) released into the bathing medium.
as §2
Neuronal cell death was assessed by measurement of LDH efflux to the bathing medium, mean±SEM (n=16 culture wells per condition). *, Significant difference from the relevant control (sham washed control), at P<0.05 using analysis of variance and Student-Newman-Keuls test.

Another data set concerns cortical neurons. Type of data set: cell-based. As for the experimental part: To examine the patterns of BDNF-induced neuronal death, we observed neurons from 32 hrs after a sham wash or continuous exposure to 100 ng/ml BDNF under phase contrast or transmission electron microscope.
Cultures were fixed in Karnovskys fixative solution (1% paraformaldehyde, 2% glutaraldehyde, 2 mM calcium cholride, 100 mM cacodylate buffer, pH 7.4) for 2 hr, washed with cacodylate buffer, and post-fixed in 1% osmium tetroxide and 1.5% potassium ferrocyanide for 1 hr. Cells were then stained en bloc in 0.5% uranyl acetate, dehydrated through graded ethanol series, and embedded in Poly/Bed 812 resin (Pelco, Calif.). Cells were sectioned using Reichert Jung Ultracut S (Leica, Cambridge, UK). After staining cells with uranyl acetate and lead citrate, cells were observed and photographed under Zeiss EM 902A.

Setting [5] is: 36 hr after 100 ng/ml BDNF, 3 nM DPI, 10 μM AEBSF, 1 μM 2-Hydroxy-TTBA.

Take `O=C(O)c1cc(NCc2c(F)c(F)c(C(F)(F)F)c(F)c2F)ccc1O` [2-Hydroxy-TTBA, 2-Hydroxy-5-(2,3,5,6-tetrafluoro-4trifluoromethyl-benzylamino)-benzoic acid]: in data set [1] (setting [5]), the “Neuronal necrosis (LDH efflux)” value is “significantly reduced”. Besides, the Free radical neurotoxicity result in data set [2] was “block free radical neurotoxicity”.
Regarding `NCCc1ccc(S(=O)(=O)F)cc1` [AEBSF, 4-(2-amonoethyl)-benzensulfonyl fluoride], in data set [1] (setting [5]), the “Neuronal necrosis (LDH efflux)” value is given as “significantly reduced”. Further, the “Swelling of neuronal cell body and neuronal death” value in data set [1] was “significantly reduced”.
In the case of `c1ccc2c(c1)[I+]c1ccccc1-2` [DPI, diphenylene iodonium], in data set [3], the “Anti-apoptotic action of BDNF on inclusion of the substance” value is recorded as “insensitive”, the “Serum deprivation-induced neuronal apoptosis” value is listed as “Neither DPI nor trolox alone reduced” and the “Delayed neuronal death evolving in the presence of BDNF” value is “attenuated”. Also, the “BDNF-induced superoxide production (oxidation of HEt and DCDHF)” value with ROS in cortical neurons is “completely blocked”. For the same molecule, in data set [1], the “Neuronal necrosis (LDH efflux)” value was “significantly reduced”; the “Swelling of neuronal cell body and neuronal death” value is “significantly reduced”.
For `O=C(O)c1cc(NCc2ccc(F)cc2)ccc1O` [FBAS, 5-(4-fluorobenxyl) aminosalicylic acid], the Free radical neurotoxicity entry in data set [2] is reported as “block free radical neurotoxicity”.
On to `COc1ccc(CNc2ccc(O)c(C(=O)O)c2)cc1` [MBAS], for which, in data set [2], the Free radical neurotoxicity entry is “block free radical neurotoxicity”.
As to `C[C@@H]1C[C@@H]([C@H](O)CC2CC(=O)NC(=O)C2)C(=O)[C@@H](C)C1` [cycloheximide, reference compound], in the data set with ROS in cortical neurons, the “BDNF-induced production of [ROS]i” value is listed as “prevented”. The “BDNF neurotoxicity / BDNF-induced neuronal cell necrosis (LDH efflux)” value in data set [1] is recorded as “blocked”.
For `Cc1c(C)c2c(c(C)c1O)CCC(C)(C(=O)O)O2` (stereo not shown) [trolox], in data set [3], the “Anti-apoptotic action of BDNF on inclusion of the substance” value is “insensitive”, the “Serum deprivation-induced neuronal apoptosis” value was “Neither DPI nor trolox alone reduced” and the “Delayed neuronal death evolving in the presence of BDNF” value is on record as “attenuated”. Moreover, the “BDNF-induced production of [ROS]i” value in the data set with ROS in cortical neurons is listed as “prevented”. Also, in data set [1], the “BDNF neurotoxicity / BDNF-induced neuronal cell necrosis (LDH efflux)” value is on record as “blocked”.
Consider NT-3: neurotrophin-3, a neurotrophin, for which, in data set [4], the “Cell necrosis induced by neurotrophin” value was “derives cell necrosis” and the “Neuronal death (LDH efflux to the bathing medium)” value is “Near complete neuronal death”.

B1: BDNF: brain-derived neurotrophic factor, a neurotrophin (protein, UniProt P23560 19-247, looked up)
Neurotrophic factor BDNF …: APMKEANIRGQGGLAYPGVRTHGTLESVNGPKAGSRGLTSLADTFEHVIEELLDEDQKVRPNEENNKDADLYTSRVMLSSQVPLEPPLLFLLEEYKNYLDAANMSMRVRRHSDPARRGELSVCDSISEWVTAADKKTAVDMSGGTVTVLEKVPVSKGQLKQYFYETKCNPMGYTKEGCRGIDKRHWNSQCRTTQSYVRALTMDSKKRIGWRFIRIDTSCVCTLTIKRGR
Consider B1, for which the “Pattern of neuronal death under transmission electron microscope” value in the data set on cortical neurons is reported as “induced neuronal necrosis”. In data set [4], the “Cell necrosis induced by neurotrophin” value was “derives cell necrosis” and the “Neuronal death (LDH efflux to the bathing medium)” value is given as “Near complete neuronal death”.

B2: NT-4/5: a neurotrophin (protein, UniProt P34130 81-210, looked up)
Neurotrophin-4: GVSETAPASRRGELAVCDAVSGWVTDRRTAVDLRGREVEVLGEVPAAGGSPLRQYFFETRCKADNAEEGGPGAGGGGCRGVDRRHWVSECKAKQSYVRALTADAQGRVGWRWIRIDTACVCTLLSRTGRA
On to B2, for which the “Cell necrosis induced by neurotrophin” value in data set [4] is listed as “derives cell necrosis”.
